{
  "source": "patent US20140193370A1",
  "about": "“METHODS AND COMPOSITIONS FOR PROMOTING LEAN BODY MASS GROWTH” (NESTEC SA, priority 2011, published 2014)",
  "test_system": "adult dogs",
  "assay": "Chronic oral OEA in the diet of dogs fed 25% more than MER; body weight gain and body composition by DEXA",
  "type": "in vivo, dog",
  "excerpt": "The physiological effects of regular oral OEA administration were investigated. OEA was provided as a supplement to dogs for […] to study the effect on body weight gain and body composition. Eighteen adult dogs participated in the study. Males with less than 17.5% body fat and females with less than 20% body fat were selected. Based on maintenance energy requirements (MER,) body weight and percentage of body fat, the dogs were randomly assigned into two groups. The control group (N=9) received a standard dry adult dog food (control diet without any OEA). The test group (N=9) received a selected dose of OEA incorporated into the standard diet. The dogs were fed 25% more than their MER for eight months. During the first four months, they received their ration in one meal per day. From month four to eight, they received their ration equally divided in two meals per day. Body weight was recorded weekly and dual X-ray absorptiometry (DEXA) scans were performed at baseline and every two months. Food intake was recorded daily. There was no difference in food consumption between groups (i.e., similar caloric intake).",
  "data": [
    {"smiles": "CCCCCCCC/C=C\\CCCCCCCC(=O)NCCO", "note": "[OEA, oleoylethanolamide]", "values": [
      {"measurement": "Lean Gain (g/kg body weight gain)", "setting": "chronic oral OEA in diet, dogs, eight months, control diet 139", "result": 170, "unit": "g/kg body weight gain"},
      {"measurement": "Fat Gain (g/kg body weight gain)", "setting": "chronic oral OEA in diet, dogs, eight months, control diet 1333", "result": 853, "unit": "g/kg body weight gain"},
      {"measurement": "more lean body mass gained per kilogram of body weight gain than dogs fed the control diet", "setting": "eight month study, OEA containing diet vs control diet", "result": 22, "unit": "%"},
      {"measurement": "more fat gained per kilogram of body weight gain by dogs fed the control diet than by dogs fed the OEA containing diet", "setting": "eight month study, control diet vs OEA containing diet", "result": 56, "unit": "%"},
      {"measurement": "body fat", "setting": "end of eight month study, dogs fed 25% more than MER, OEA incorporated into standard diet, control diet 16.0%", "result": 14.8, "unit": "%"},
      {"measurement": "gain in lean body mass", "setting": "end of eight month study, dogs fed 25% more than MER, OEA incorporated into standard diet, control diet 236.9 g", "result": 446.7, "unit": "g"},
      {"measurement": "food consumption (caloric intake) vs control group", "setting": "food intake recorded daily, OEA diet group vs control diet group", "result": "no difference"}
    ]}
  ]
}
